Measured values as given in the NIST ThermoML archive (doi:10.1016/j.fluid.2009.11.030).
± gives the expanded uncertainty stated by the source.

Details: 101.33 kPa, Liquid, Vibrating tube method

## CC(C)CO [2-methyl-1-propanol]
288.15 K
  mass density: 806.121 ± 0.14 kg/m3
298.15 K
  mass density: 798.409 ± 0.14 kg/m3
313.15 K
  mass density: 786.515 ± 0.15 kg/m3
328.15 K
  mass density: 774.113 ± 0.15 kg/m3
338.15 K
  mass density: 765.452 ± 0.15 kg/m3
348.15 K
  mass density: 756.435 ± 0.16 kg/m3

## CCCCO [butan-1-ol]
288.15 K
  mass density: 813.604 ± 0.11 kg/m3
298.15 K
  mass density: 805.984 ± 0.11 kg/m3
313.15 K
  mass density: 794.34 ± 0.12 kg/m3
328.15 K
  mass density: 782.323 ± 0.12 kg/m3
338.15 K
  mass density: 774.032 ± 0.13 kg/m3
348.15 K
  mass density: 765.48 ± 0.13 kg/m3

## CCOC(=O)CC(=O)OCC [diethyl 1,3-propanedioate]
288.15 K
  mass density: 1060.33 ± 0.061 kg/m3
298.15 K
  mass density: 1049.6 ± 0.057 kg/m3
313.15 K
  mass density: 1033.5 ± 0.051 kg/m3
328.15 K
  mass density: 1017.34 ± 0.045 kg/m3
338.15 K
  mass density: 1006.5 ± 0.042 kg/m3
348.15 K
  mass density: 995.631 ± 0.041 kg/m3

## CCOC(C)=O [ethyl acetate]
288.15 K
  mass density: 906.547 ± 0.11 kg/m3
298.15 K
  mass density: 894.381 ± 0.12 kg/m3
313.15 K
  mass density: 875.812 ± 0.12 kg/m3
328.15 K
  mass density: 856.813 ± 0.13 kg/m3
338.15 K
  mass density: 843.858 ± 0.13 kg/m3
348.15 K
  mass density: 830.622 ± 0.14 kg/m3

## CCCCCCC [heptane]
288.15 K
  mass density: 688.254 ± 0.25 kg/m3
298.15 K
  mass density: 679.787 ± 0.25 kg/m3
313.15 K
  mass density: 666.893 ± 0.25 kg/m3
328.15 K
  mass density: 653.72 ± 0.26 kg/m3
338.15 K
  mass density: 644.767 ± 0.26 kg/m3
348.15 K
  mass density: 635.631 ± 0.26 kg/m3

## CCCCCO [pentan-1-ol]
288.15 K
  mass density: 819.154 ± 0.14 kg/m3
298.15 K
  mass density: 811.8 ± 0.14 kg/m3
313.15 K
  mass density: 800.574 ± 0.14 kg/m3
328.15 K
  mass density: 789.007 ± 0.15 kg/m3
338.15 K
  mass density: 781.05 ± 0.15 kg/m3
348.15 K
  mass density: 772.873 ± 0.15 kg/m3
